According to patent publication US10335365B2, “Bladder cancer specific ligand peptides” (The Regents of the University of California, priority 2009, dated 2019):
Positions of bridges follow the written chain, without caps; N, C: chain ends. Non-standard residues stand in square brackets, D forms with d. No end group written: not given here.

Legend:
[1] = system: normal canine bladder urothelial cells; assay: Whole cell binding assay of Example 2, normal canine urothelial cells; conditions: PLZ4 beads
Procedure: (§1) This experiment was repeated 3 times for cell lines. […] 5637 human bladder cancer cell line; b. […] The average diameter of the beads is 90 μm. […] This experiment was repeated for 3 times. (200×)
(§2) To determine the binding of PLZ4 to canine TCC cell lines, whole cell binding assay was performed. PLZ4 was synthesized on TentaGel S NH2 resin beads (Rapp Polymere Gmbh, Germany) (Pegram, et al., J Clin Oncol (1998) 16:2659-2671), and incubated with single suspensions of five different canine carcinoma cell lines including K9TCC-PU, K9TCC-PU-AxA, K9TCC-PU-In, K9TCC-PU-AxC, and K9TCC-PU-Nk (kindly provided by Deborah Knapp at Purdue University, West Lafayette, Ind., USA) at 10^6 cells/ml. The negative control was normal urothelial cells obtained from dogs that were euthanized due to non-bladder-related disorders. Human bladder cancer cell line, 5637 were served as the positive control. If PLZ4 bound to cells in suspension, then the bead surface was covered with cells. Over 95% of the bead surface was covered with 5637 and K9TCC cells (FIG. 7A-a and b, respectively).

[2] = biological target: T1, K562 cells transfected with a503 integrin (Homo sapiens, UniProt P05106+P06756); assay: Bead binding to K562 cells transfected with integrin; conditions: OBOC beads bearing PLZ4
T1 construct: expressed in transfected cells; host or cells: K562
Procedure: Here, OBOC beads bearing PLZ4 peptides on the surface were incubated with K562 cells transfected with various integrins. K562 cells express endogenous a501 integrin. […] Several other ligands obtained from the initial screening also contain the DGR motif. […] To identify which amino acids are involved in determining cell binding and binding specificity, “alanine walk” was performed combined with the rainbow bead coding methods (Luo, et al., J Comb Chem, (2008) 10: 599-604). The amino acids aspartic acid (D, the X2 position), arginine (R, X4) and phenylalanine (F, X7) are important for cell binding. Replacement of any of these amino acids with alanine completely abolished the binding of the peptides to 5637 cells (FIG. 6B). […] Methionine at the X5 position could be replaced to many other amino acids without compromising the binding affinity. Based on this analysis, the three amino acids (D, G and R) at the N-terminus together with the two amino acids (G and F) at the C-terminus determine the binding specificity. Therefore, the binding pocket may be in the clover shape: one for the N-terminal three amino acids, one for the C-terminal two amino acids and a middle pocket. So w the depth of the middle binding pocket by adding different numbers of glycine residue to the X5 position. […]

[3] = system: bladder cells from a dog with chronic cystitis; assay: Whole cell binding assay of Example 2, chronic cystitis bladder cells; set-up: species or system canine; conditions: PLZ4 beads
Procedure: as §1, §2

[4] = system: primary bladder cancer cells from patients; assay: Whole cell bead binding assay, primary bladder cancer cells from patients; set-up: species or system human; conditions: beads coated with PLZ4; fresh bladder cancer specimens
Procedure: Four bladder cancer cell lines including 5637 (HTB-9), SCaBER, TCCSUP (HTB-5), and T24 (HTB-4) were purchased from the American Type Culture Collection (Manassas, Va.). The isolation, characterization and maintenance of normal urothelial cells was previously described in detail (Bagai, et al., J Biol Chem, (2002) 277: 23828-23837). Normal peripheral blood mononuclear cells were prepared by using the Ficoll-Paque gradient method from peripheral blood of healthy donors. Bladder cancer tissue obtained from cystectomy was cut into pieces, digested with collagenase at 37° C. for 1-2 hours per the manufacturer's protocol, and filtered through a 40-μm strainer to make single cell suspension. Tumor cells were then isolated with Ficoll-Paque gradient method (800 g, 30 min at 4° C.). Informed consent was obtained from each patient or healthy donor before specimens were collected.
The beads were washed extensively with double-distilled water and phosphate-buffered saline (PBS) before screening. […]
The cell surface molecules on established cell lines in culture may not be the same as those molecules on primary bladder cancer cells. It was assessed if PLZ4 could bind to bladder cancer cells from patients. […]

[5] = system: bladder TCC cell lines 5637, T24 and TCCSUP; assay: Whole cell bead binding assay, bladder TCC cell lines; set-up: species or system human; conditions: peptide on OBOC beads; 5637, T24, TCCSUP
Procedure: The beads were washed extensively with double-distilled water and phosphate-buffered saline (PBS) before screening. Bladder cancer cells and normal urothelial cells were detached from culture dishes with trypsin/EDTA or a Detach kit (PromoCell, Heidelberg, Germany), washed with their corresponding culture medium, resuspended at 10^6 cells/ml and incubated with OBOC beads in Petri dishes in a humidified CO2 incubator at 37° C. with shaking (60 rpm). Beads bound by cells appeared as rosettes with a central bead covered by a layer(s) of cells under a microscope. The positive beads were picked with a pipette under inverted microscope, treated with Quanidine HCl (8M, 20 min) to remove cells and proteins on beads surface, and underwent a second round of incubation with the same cells to confirm the binding. Only those beads with cell bindings at both rounds were sent for the amino acid sequencing as previously described (Peng, et al., Nat Chem Biol, (2006) 2: 381-389).
Whole cell bead binding assay was used to screen libraries for peptides that bind bladder cancer cell cultures (FIG. 1). Approximately 150,000 library beads (peptides) were screened against each of 4 bladder cancer cell lines (three transitional cell carcinoma (TCC) lines: T24, TCCSUP and 5637, and one squamous cell line SCaBER). […]

T1 sequence (P06756 31-889 limits assumed): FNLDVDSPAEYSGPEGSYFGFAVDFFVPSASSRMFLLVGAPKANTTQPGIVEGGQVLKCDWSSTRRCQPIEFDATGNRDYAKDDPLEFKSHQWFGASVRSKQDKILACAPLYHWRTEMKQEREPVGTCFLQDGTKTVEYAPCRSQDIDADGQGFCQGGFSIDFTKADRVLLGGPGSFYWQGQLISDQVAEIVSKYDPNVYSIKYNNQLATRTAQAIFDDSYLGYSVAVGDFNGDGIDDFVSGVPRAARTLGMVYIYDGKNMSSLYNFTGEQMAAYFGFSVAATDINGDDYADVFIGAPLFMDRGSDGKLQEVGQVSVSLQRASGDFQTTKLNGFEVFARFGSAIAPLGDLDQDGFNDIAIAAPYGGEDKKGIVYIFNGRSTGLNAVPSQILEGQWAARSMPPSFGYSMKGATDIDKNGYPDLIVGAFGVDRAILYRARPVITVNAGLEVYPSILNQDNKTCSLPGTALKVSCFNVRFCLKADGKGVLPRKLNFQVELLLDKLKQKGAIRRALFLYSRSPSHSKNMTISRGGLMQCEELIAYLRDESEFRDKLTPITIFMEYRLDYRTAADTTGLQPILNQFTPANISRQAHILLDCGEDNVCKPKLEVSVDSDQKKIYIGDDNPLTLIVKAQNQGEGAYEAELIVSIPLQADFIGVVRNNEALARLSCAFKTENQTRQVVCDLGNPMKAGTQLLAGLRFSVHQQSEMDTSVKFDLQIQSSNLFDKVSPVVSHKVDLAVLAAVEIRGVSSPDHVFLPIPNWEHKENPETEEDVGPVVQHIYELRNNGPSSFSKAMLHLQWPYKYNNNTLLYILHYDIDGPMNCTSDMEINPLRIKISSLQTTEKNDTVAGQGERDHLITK
T1 sequence (P06756 891-1048 partner limits assumed): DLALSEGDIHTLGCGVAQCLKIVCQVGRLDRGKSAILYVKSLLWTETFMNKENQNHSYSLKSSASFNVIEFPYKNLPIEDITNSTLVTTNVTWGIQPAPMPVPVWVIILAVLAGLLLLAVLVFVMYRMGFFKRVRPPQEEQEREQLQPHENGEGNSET
T1 sequence (P05106 27-788): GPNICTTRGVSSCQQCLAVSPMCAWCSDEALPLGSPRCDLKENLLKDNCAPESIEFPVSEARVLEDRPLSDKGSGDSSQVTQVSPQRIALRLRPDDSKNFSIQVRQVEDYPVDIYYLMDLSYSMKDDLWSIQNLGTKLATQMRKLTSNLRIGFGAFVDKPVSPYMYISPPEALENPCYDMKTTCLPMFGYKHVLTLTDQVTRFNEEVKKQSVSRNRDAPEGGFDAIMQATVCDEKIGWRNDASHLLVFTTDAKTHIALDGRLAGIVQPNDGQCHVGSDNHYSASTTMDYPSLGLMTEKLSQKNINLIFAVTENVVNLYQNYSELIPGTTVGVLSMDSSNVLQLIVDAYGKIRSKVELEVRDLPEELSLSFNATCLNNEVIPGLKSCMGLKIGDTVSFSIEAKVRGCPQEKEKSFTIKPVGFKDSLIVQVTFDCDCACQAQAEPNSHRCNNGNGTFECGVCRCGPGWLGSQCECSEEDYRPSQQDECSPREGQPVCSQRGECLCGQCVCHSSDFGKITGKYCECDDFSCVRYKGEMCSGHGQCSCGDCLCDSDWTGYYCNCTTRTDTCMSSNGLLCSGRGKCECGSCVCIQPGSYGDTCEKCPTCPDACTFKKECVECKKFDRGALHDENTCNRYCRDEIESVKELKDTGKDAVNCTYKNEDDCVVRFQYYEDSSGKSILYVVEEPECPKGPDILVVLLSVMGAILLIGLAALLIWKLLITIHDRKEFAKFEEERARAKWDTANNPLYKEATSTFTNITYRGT

For “cQDGRMGFc ([dC]QDGRMGF[dC]; disulfide 1-9 (inferred)) [PLZ4, bladder cancer-specific ligand peptide]”, the “binding to normal canine bladder urothelial cells” value [1] was “no cell binding”, the “binding to K562 cells transfected with a503 integrin” value [2] was “bound” and the “binding to bladder cells from a dog with chronic cystitis” value [3] was “no cell binding”. For the same substance, the “binding to primary bladder cancer cells from patients” value [4] was “could bind to cells from all 5 fresh bladder cancer specimens” and the “binding to bladder TCC cell lines” value [5] was “bound to all three bladder TCC cell lines”.
